The text below walks through data of patent US20250074910A1, “MENIN INHIBITOR AND USE THEREOF” (HITGEN INC., priority 2021, published 2025).

Usually GI50 stands for the concentration that inhibits growth by half. The low end stands for greater sensitivity of the cells, the high end for lower sensitivity of the cells. Usually IC50 stands for the concentration that inhibits the measured activity by half. By Cmax is commonly meant the highest concentration seen after dosing.

Read-outs that look alike come from different tables or passages of the source.

The nature of data set [1]: Stability in human liver microsomes. As to conditions: 0.5 mg/mL microsomal protein, 1.00 μM compound, NADPH. It is filed as in vitro ADME. The method, then:
(§1) Test Example 3: Test of Stability of Compounds in Liver Microsome
(§2) Test purpose: To determine the stability of some of the compounds of the present disclosure in mouse, dog and human liver microsomes by LC-MS/MS method.
(§3) Test materials: The test drugs were in-house prepared example compounds of the present disclosure; the positive reference compound SNDX-5613 was prepared by the method of Example 253 in patent WO2017214367; the control compound 1 was prepared by the method of Example 64 in WO2017214367; liver microsomes were purchased from CORNING.
(§4) The total volume of each incubation system was approximately 45 μL, and the medium was 100 mM phosphate buffer (PBS, pH 7.4), including liver microsomal protein at a final concentration of 0.5 mg/mL, 1.00 μM compound and 2.00 mM NADPH, and the organic phase content was <1%. Incubation was performed in a 37° C. incubator, and 135 μL of ice-cold acetonitrile was added after 0, 5, 15, 30 and 60 min of reaction to terminate the reaction. The positive control group was incubated with 1.00 μM Ketanserin, 0.5 mg/mL liver microsomal protein and 2.00 mM NADPH in a 37° C. incubator for 0, 5, 15, 30 and 60 min respectively, and then 135 μL of ice-cold acetonitrile was added to terminate the reaction. The 96-well plates were shaken at 600 rpm for 10 min and then centrifuged at 4700 rpm at 4° C. for 15 min. 80 μL of supernatant was mixed with 320 μL of pure water, and the remaining amount of the compound was detected by LC-MS/MS method. The in vitro half life (T½) and intrinsic clearance (CLint) were calculated according to the following formula:
(§5) Intrinsic clearance (Clint)=(0.693/T1/2)×(1/liver microsome concentration)×conversion factor. k is the linear regression slope of the remaining percentage of the ln compound-incubation time.
(In general: Liver microsomes are vesicles of endoplasmic reticulum, rich in cytochrome P450 enzymes.)

Data set [2] relates to OCI-AML3. Nature of the data set: Cell proliferation inhibition (CellTiter-Glo), OCI-AML3 (NPM1 mutation). It is filed as cell-based. As to conditions: Homo sapiens, OCI-AML-3, 168 h, OCI-AML3 cells. In short, it runs like this: (§6)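 Leukemia cells were seeded at 5,000-20,000 cells/well and exposed to test compound at final concentrations from 1 nM to 10 μM. After 72-168 h at 37° C and 5% CO2, viability was measured by CellTiter-Glo luminescence following 10 min at room temperature, and IC50 values were obtained from fitted curves.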

Data set [3] in a line: Stability in dog liver microsomes. It is filed as in vitro ADME. As to conditions: 0.5 mg/mL microsomal protein, 1.00 μM compound, NADPH. The method, then: as §1, §2, §3, §4, §5
Data set [4] addresses T1, hERG potassium ion channel (Homo sapiens (Human), UniProt Q12809). Kind of data set: hERG potassium channel effect test (manual patch clamp, HEK293 cells overexpressing hERG). It is filed as cell-based. Here is the method: Test Example 6: hERG Potassium Channel Effect Test
The hERG inhibition test was performed on some of the example compounds of the present disclosure using the manual electrophysiological patch clamp method. The cell line was derived from HEK293 cells that overexpressed hERG potassium ion channels. The specific experimental protocol was developed by PharmaCore Labs with reference to literature published in peer-reviewed journals and was performed by PharmaCore Labs in accordance with its standard experimental operating procedures. The highest test concentration was 30 μM.

Data set [5] concerns MV4-11. Kind of data set: Cell proliferation inhibition (CellTiter-Glo), MV4-11. It is filed as cell-based. The settings on record: Homo sapiens, MV4-11, 72 h, MV4-11 cells. The essentials: as §6
For data set [6], the target named is Menin/MLL-4-43 peptide interaction (Homo sapiens (Human), UniProt O00255). Kind of data set: Menin-MLL interaction inhibitory activity assay (fluorescence polarization competition). It is filed as binding. The settings on record: FITC-MLL4-43-peptide, Menin recombinant protein. In short, it runs like this:
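Menin (8 nM solution) was preincubated 15 min with compound, then FITC-MLL4-43 peptide (10 nM solution) was added and shaken for 60 min at 25 °C. The buffer was 50 mM Tris pH 7.5, 50 mM NaCl, 1 mM DTT. IC50 was derived from fluorescence polarization read at 485/520 nm.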
For orientation: Polarisation of emitted light reports the rotation of a fluorescent probe.

Data set [7] can be described thus: Stability in mouse liver microsomes. It is filed as in vitro ADME. The settings on record: 1.00 μM compound, NADPH. The method, then:
as §1, §2, §3, §4, §5

Data set [8] has as its system MOLM-13. Kind of data set: Cell proliferation inhibition (CellTiter-Glo), MOLM-13. It is filed as cell-based. As to conditions: Homo sapiens, MOLM-13, 168 h, MOLM-13 cells. In short, it runs like this: as §6
(In ATP-based viability assays light output follows the ATP content of the culture.)

Data set [9] addresses T1, hERG potassium ion channel. The settings on record: reported value of the positive reference compound; cited from earlier work.
Data set [10] can be described thus: Pharmacokinetics test in mouse. As to conditions: mice, p.o. 10 mg/kg. It is filed as in vivo, ICR mice. The essentials:
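Fasted male ICR mice dosed with compound in saline with 1.5 eq HCl, 1 mg/kg i.v. or 10 mg/kg oral gavage (6 mice each). Plasma sampled 5 min–24 h, measured by LC-MS/MS; t½, Cmax, AUC, CL and F% by non-compartmental analysis, mean±SD.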

T1 sequence (Q12809 whole entry): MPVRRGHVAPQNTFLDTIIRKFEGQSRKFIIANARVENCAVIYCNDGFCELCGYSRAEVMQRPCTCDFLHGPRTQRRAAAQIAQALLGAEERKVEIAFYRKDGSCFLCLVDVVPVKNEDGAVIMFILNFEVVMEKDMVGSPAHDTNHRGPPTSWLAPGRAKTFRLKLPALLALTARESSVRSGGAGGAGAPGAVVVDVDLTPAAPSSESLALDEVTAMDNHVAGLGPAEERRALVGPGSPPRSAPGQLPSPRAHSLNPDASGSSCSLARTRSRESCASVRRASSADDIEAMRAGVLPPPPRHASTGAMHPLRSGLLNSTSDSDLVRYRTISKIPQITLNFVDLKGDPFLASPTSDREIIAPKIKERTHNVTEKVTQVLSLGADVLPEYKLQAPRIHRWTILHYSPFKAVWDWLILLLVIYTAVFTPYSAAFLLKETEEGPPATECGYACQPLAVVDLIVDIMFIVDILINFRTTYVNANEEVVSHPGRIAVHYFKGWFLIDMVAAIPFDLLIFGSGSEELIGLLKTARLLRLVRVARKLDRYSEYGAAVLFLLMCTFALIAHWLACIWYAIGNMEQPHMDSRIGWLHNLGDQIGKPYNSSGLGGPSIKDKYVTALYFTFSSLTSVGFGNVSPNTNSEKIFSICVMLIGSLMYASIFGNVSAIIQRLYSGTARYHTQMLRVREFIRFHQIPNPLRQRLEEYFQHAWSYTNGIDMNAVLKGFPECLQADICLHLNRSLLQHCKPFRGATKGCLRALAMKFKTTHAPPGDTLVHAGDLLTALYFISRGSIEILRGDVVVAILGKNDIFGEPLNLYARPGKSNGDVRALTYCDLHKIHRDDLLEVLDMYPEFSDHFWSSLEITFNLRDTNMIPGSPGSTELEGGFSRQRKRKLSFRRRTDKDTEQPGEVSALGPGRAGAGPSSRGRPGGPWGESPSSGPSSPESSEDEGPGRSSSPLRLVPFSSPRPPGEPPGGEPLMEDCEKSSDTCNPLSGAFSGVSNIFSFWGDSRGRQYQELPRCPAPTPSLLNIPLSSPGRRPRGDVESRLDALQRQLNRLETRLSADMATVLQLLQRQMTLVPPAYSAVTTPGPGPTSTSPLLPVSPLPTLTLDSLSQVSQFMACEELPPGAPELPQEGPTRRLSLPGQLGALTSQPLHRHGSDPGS
Sequence of Menin/MLL-4-43 peptide interaction (O00255 whole entry, species assumed): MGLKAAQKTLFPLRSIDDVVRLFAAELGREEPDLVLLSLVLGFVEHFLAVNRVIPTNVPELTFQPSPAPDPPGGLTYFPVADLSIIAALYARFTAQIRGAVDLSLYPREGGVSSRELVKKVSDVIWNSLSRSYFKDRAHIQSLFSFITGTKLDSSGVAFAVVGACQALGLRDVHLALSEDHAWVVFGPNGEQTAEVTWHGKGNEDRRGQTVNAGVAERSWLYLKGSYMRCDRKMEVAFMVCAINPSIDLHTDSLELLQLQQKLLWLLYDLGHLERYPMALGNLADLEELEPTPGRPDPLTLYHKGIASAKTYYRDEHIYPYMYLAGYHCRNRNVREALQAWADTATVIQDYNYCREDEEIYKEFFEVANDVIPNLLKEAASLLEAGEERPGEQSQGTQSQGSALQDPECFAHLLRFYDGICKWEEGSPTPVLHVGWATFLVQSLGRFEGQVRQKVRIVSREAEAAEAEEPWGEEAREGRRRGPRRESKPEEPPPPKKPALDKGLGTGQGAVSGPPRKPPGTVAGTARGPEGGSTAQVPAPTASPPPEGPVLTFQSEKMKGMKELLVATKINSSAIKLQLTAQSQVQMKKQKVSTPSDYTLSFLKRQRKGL

In the case of `CCN(C(=O)c1cc(F)ccc1Oc1nncnc1N1CC2(CCN(C[C@H]3CC[C@]4(CC3)C[C@H](COC)C(=O)N4)CC2)C1)C(C)C` [Example 37-1], the half-life at 1 μM in data set [1] (human, liver microsomes, pH 7.4, Human, read-out: Half life T1/2, human liver microsomes) was more than 2 h; in data set [3] (dog, liver microsomes, pH 7.4, Dog, read-out: Half life T1/2, dog liver microsomes) it was more than 2 h; in data set [7] (liver microsomes, pH 7.4, 0.5 mg/mL microsomal protein, read-out: Half life T1/2, mouse liver microsomes) it was more than 2 h. The GI50 in data set [2] is 183 nM; in [5], 88.3 nM; in data set [8], 354 nM. Moreover, the inhibition at 30 μM in data set [4] (human, HEK293 cells overexpressing hERG potassium ion channels, 30 μm, read-out: Average inhibition rate of hERG current at the highest compound tested concentration) turned out to be 13.2%. In addition, the IC50 in data set [4] (manual patch clamp, highest test concentration 30 μM) is more than 30000 nM; in data set [6], 12.9 nM.

Take `CCN(C(=O)c1cc(F)ccc1Oc1cncnc1N1CC2(CCN(C[C@H]3CC[C@H](NS(=O)(=O)CC)CC3)CC2)C1)C(C)C` [SNDX-5613, reference compound]: in data set [1] (Human), the “Half life T1/2, human liver microsomes” value came to 0.1998 h. The “Half life T1/2, dog liver microsomes” value in data set [3] (Dog) was 1.05 h. Further, the half-maximal inhibitory concentration (IC50) in data set [9] is 5000 to 15000 nM. Moreover, in data set [7] (0.5 mg/mL microsomal protein), the “Half life T1/2, mouse liver microsomes” value was 1.178 h. In addition, in data set [10], the “AUClast” value was 2483 ng·h/mL, the “Cmax” value worked out at 1296 ng/mL and the “T1/2” value came out at 1.53 h. In addition, the “F, %” value in [10] (1 mg/kg for intravenous injection) was 88%.
